Series [1] has as its system male FVB/N mice on high salt diet, kidney. The series can be described thus: High salt (5%) diet intervention model, kidney. Format: in vivo, mouse. Particulars: 75 pmol/kg/min s.c., weeks 5-8. As to the method: C) In the intervention (or reversal) model, male FVB/N mice were treated with selective AT2Rs agonists after the establishment of cardiovascular disease using a high salt diet, in order to reverse cardiovascular pathologies. In some experiments, the ACE inhibitor captopril (dose) or the ARB candesartan cilexetil (dose) were given for 4 weeks in drinking water. Organs examined included heart, kidney and liver and these were compared to either untreated mice or high salt-fed mice that were treated with saline.
Mice were placed on either a normal rodent diet (0.35% NaCl) which acted as control or a high salt diet (5% sodium in food chow) for 8 weeks. After 4 weeks, mice were also treated subcutaneously (via osmotic mini-pump) with either saline or an AT2R agonist (75 pmol/kg/min subcutaneously) for 4 weeks. Mice continued to be fed a high salt diet whilst receiving these treatments.
To measure collagen deposition, frozen sections of heart, kidney or aorta (all 5 μm thickness) were air dried for 10 minutes and were brought through 3 times xylene (2 minutes each), and 3 times absolute alcohol washes before being rinsed in tap H2O for 30 seconds. Staining with an optimal concentration of picrosirius red (in this instance 0.05% picrosirius red diluted in saturated picric acid) was performed and left for an hour. Sections were then rinsed in water and differentiated in 0.01M HCl for 2 minutes, followed by dehydration via 3 times absolute alcohol washes. Then, slides were brought through 3 times xylene washes before being cover slipped according to standard histological techniques using DPX as the mounting medium. Images were taken under ×20 magnification, using bright field (Olympus, BX51) and circularized polarized light microscopy (DM IRB, Leica) while percentage of positive interstitial collagen staining per total field of view was quantified using ImageJ 1.46 software (Java, NIH), and averaged out from a total of eight views as the final percentage collagen content in a particular animal.
Kidney sections used either picrosirius red staining as described above or using Mason's Trichrome staining as described below.
Formalin fixed, paraffin embedded kidneys were sectioned at thickness of 4 μm and were stained with Masson's trichrome according to standard procedures for analysis of kidney fibrosis. […] Sections were re-fixed in Bouin's solution for 1 hour at 56° C. to improve staining quality then rinsed in running tap water for 5-10 minutes to remove yellow colour. Following this, sections were stained in Weigert's iron hematoxylin working solution for 10 minutes. Rinsed in running warm tap water for 10 minutes. Washed in distilled water. Stained in Biebrich scarlet-acid fuchsin solution for 10-15 minutes. Washed in distilled water. Differentiated in phosphomolybdic-phosphotungstic acid solution for 10-15 minutes or until collagen was no longer red. Sections were transferred directly (without rinse) to aniline blue solution and stained for 5-10 minutes. Rinsed briefly in distilled water and differentiated in 1% acetic acid solution for 2-5 minutes. Washed in distilled water. […] Mounted with DPX mounting medium.
Quantification of kidney fibrosis was performed using images captured with the Aperio scanner (Monash Histology Platform, Monash University), with ×5 magnification. Each kidney section had 5 different fields of view photographed at this magnification. Percentage of tubulointerstitial collagen was analysed and quantified using ImageJ 1.48 software (Java, NIH), and the percentage from 5 random fields of view were averaged for final percentage of collagen for that particular animal. All analysis of collagen expression was conducted in a blinded fashion.

For series [2], the system named is male FVB/N mice on high salt diet, heart. Put plainly: High salt (5%) diet intervention model, heart. Format: in vivo, mouse. Summed up: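 Male FVB/N mice fed 5% salt diet for 8 weeks (controls 0.35% NaCl); from week 4, AT2R agonist at 75 pmol/kg/min or saline given subcutaneously by osmotic minipump for 4 weeks on continued high salt. Heart collagen by picrosirius red, % interstitial staining averaged over eight fields; immunofluorescence for fibrosis/inflammation markers.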

Another series addresses T1, human AT2R (Homo sapiens, UniProt P50052).
T1 construct: expressed in transfected cells
T1 sequence (P50052 1-363): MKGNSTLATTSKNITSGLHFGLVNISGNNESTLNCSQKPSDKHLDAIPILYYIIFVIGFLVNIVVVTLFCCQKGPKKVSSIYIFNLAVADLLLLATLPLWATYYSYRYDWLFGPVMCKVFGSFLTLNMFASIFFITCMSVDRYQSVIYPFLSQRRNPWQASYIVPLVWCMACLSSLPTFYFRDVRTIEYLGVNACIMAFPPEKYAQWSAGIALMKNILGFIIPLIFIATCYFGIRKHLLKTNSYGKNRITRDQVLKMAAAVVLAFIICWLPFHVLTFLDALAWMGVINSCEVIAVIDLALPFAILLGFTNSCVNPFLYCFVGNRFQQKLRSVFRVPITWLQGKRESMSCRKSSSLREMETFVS
Put plainly: Competition radioligand binding (125I-Sar1-Ile8-AngII) in AT2R-transfected HEK-293 cells. Particulars: transfected HEK-293 cells.

Series [3] can be described thus: In vitro plasma stability assay (rat plasma). Format: in vitro ADME. The settings on record: plasma from male spontaneously hypertensive rats (SHR), read-out: Plasma stability (t1/2). Here is the method: Proteolytic stability may be tested in a plasma stability assay used to assess the susceptibility of a peptide described herein to plasma proteases. Plasma stability may be tested using methods described herein. For example, a sample of rat plasma may be incubated with peptide of interest (final concentration was 1 mg/mL; plasma diluted by 10% with peptide dissolved in saline). Protease activity is then quenched in samples by the addition of acetonitrile, at selected time intervals. The amount of parent compound remaining at each time point can then be assayed on an Agilent 1100 MSD SL ion trap mass spectrometer. The peaks observed in the resulting chromatograms are integrated, compared to a standard curve, and cross-checked by mass and retention time (Jones et al 2011 Hypertension. 57: 570-576).
B) Proteolytic stability was tested in a plasma stability assay used to assess the susceptibility of Ang II peptides to plasma proteases. A sample of rat plasma was incubated with peptide of interest (final concentration was 1 mg/mL; plasma diluted by 10% with peptide dissolved in saline). Protease activity was quenched in samples by the addition of acetonitrile, at selected time intervals. The amount of parent compound remaining at each time point was then assayed on an Agilent 1100 MSD SL ion trap mass spectrometer. […]

Another series has as its target T2, human AT1R (Homo sapiens, UniProt P30556).
T2 construct: expressed in transfected cells
T2 sequence (P30556 1-359): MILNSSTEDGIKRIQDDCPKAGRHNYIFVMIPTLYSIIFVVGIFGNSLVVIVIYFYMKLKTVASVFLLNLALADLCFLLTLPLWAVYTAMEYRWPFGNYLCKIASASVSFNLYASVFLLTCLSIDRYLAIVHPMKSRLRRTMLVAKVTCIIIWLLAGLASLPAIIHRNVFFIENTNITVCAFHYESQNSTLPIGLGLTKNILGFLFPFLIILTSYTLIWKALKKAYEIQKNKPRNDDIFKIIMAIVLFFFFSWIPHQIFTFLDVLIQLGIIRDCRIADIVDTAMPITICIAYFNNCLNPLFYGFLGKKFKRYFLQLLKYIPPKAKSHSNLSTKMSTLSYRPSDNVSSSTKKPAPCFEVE
Put plainly: Competition radioligand binding (125I-Sar1-Ile8-AngII) in AT1R-transfected HEK-293 cells.

The test system of series [4] is male FVB/N mice on high salt diet, kidney. Put plainly: High salt (5%) diet intervention model, kidney. Type of series: in vivo, mouse. Particulars: 75 pmol/kg/min s.c., weeks 5-8. The source holds these as a separate data set.

Procedure for human AT1R: (§1) This will lead to the generation of IC50 values that determine the relative ability of test compounds to interact with both Angiotensin receptors.
(§2) Cells were grown to approximately 80% confluence before being re-plated into 48 well plates at 1×10^5 cells/well and grown for 48 hours at 37° C. for a whole cell competition binding assay. [125I]-Sar1Ile8Ang II at 50,000 cpm, incubated for 45 minutes at 37° C., in the absence or presence of unlabeled ligands, prepared in binding buffer (DMEM, 0.1% BSA), were used in the competition assays at concentrations ranging from 1 μM to 10 μM. For each experiment, each ligand concentration was tested in duplicate or triplicate, and each experiment was repeated at least 3 separate times. […] The ability of each ligand to inhibit specific binding of [125I]-Sar1Ile8Ang II was measured on a gamma counter with all counts corrected for NSB.
Procedure for human AT2R: as §1, §2

With `CC[C@H](C)[C@H](NC(=O)[C@H](Cc1ccc(O)cc1)NC(=O)[C@@H](NC(=O)[C@H](CCCNC(=N)N)NC(C)=O)C(C)C)C(=O)N[C@@H](Cc1c[nH]cn1)C(=O)N1CCC[C@H]1CC(=O)N[C@@H](Cc1c[nH]c2ccccc12)C(=O)O` [NAc-βPro-Trp-8-Ang III, NAc--Arg-Val-Tyr-Ile-His-β-Pro-Trp], in series [1], the “kidney glomerular fibrosis (picrosirius red)” value is on record as “reversed the glomerular fibrosis caused by high salt in the kidney” and the “kidney tubulointerstitial fibrosis (picrosirius red)” value is “reversed the tubulointerstitial fibrosis caused by high salt in the kidney”. Further, in series [2] (75 pmol/kg/min s.c., weeks 5-8), the “cardiac fibrosis by hydroxyproline analysis (LV collagen content)” value was “reversed the pro-fibrotic effects of high salt in the heart”, the “cardiac oxidative stress (DHE staining)” value is given as “reversed the oxidative stress effects of high salt in the heart” and the “myofibroblast differentiation in heart (α-SMA)” value is recorded as “reversed myofibroblast differentiation”. Besides, in series [2] (weeks 5-8, peptides 75 pmol/kg/min s.c., Cand 2 mg/kg/day, captopril 3 mg/kg/day), the “expression of P-IκBα (marker for NFκB activation) in heart” value is “reversed”. The “cardiac fibrosis (picrosirius red)” value in series [2] (weeks 5-8 of high salt diet, peptides 75 pmol/kg/min s.c. mini-pump, Cand 2 mg/kg/day, captopril 3 mg/kg/day in drinking water) is “reversed cardiac fibrosis”. Moreover, on human AT2R, the “binding at AT2R (displacement of 125I-Sar1-Ile8-AngII), in words” value was “high affinity”. In series [3], the half-life at 1 mg/mL turned out to be 1550 min. Further, the “binding at AT1R (displacement of 125I-Sar1-Ile8-AngII), in words” value on human AT1R is listed as “bind poorly”. Also, in series [4], the “macrophage infiltration in kidney (F4/80)” value is reported as “reversed high salt-induced macrophage infiltration in the kidney”, the “renal fibrosis by hydroxyproline analysis” value is recorded as “reversed the pro-fibrotic effects of high salt in the kidney” and the “renal inflammation (phospho-IκBα expression)” value was “reversed high salt-induced renal inflammation in the kidney”.
